The test system of assay [1] is spontaneously hypertensive rats (SHR). The assay can be described thus: Evaluation of blood pressure reduction (single administration, systolic blood pressure of the caudal artery). Conditions: male 15 week-old SHR, fasted overnight, solution in physiological saline (0.2% actives in total), 1 mL/kg, mean ± SD, n=5; for Systolic blood pressure (changing ratio %) after 10 minutes: 10 minutes after administration vs prior to administration; for Systolic blood pressure (changing ratio %) After 1 hour: 1 hour after administration vs prior to administration. In kind it is in vivo, rat. As for the experimental part:
Prior to initiation of the experimental studies in order to accustom the test animals to sphygmomanometric operation the blood pressure of each test animal—male, 15 week-old, spontaneously hypertensive rats (“SHR”)—was preliminarily measured for 7 successive days using a commercially available noninvasive sphygmomanometer for rats (manufactured by Softlon Co., Ltd.).
Rats were all bred in a breeding room in a rat region under uniform conditions at a room temperature at 25±1° C., humidity of 55±10% RH and illumination for 12 hours (from 7:00 am to 7:00 pm).
In the control group (Control Plot, see Table 1), physiological saline was employed. As a material to be administered, a solution obtained by dissolving 0.2 wt. % (which will hereinafter be simply described as %) of caffeic acid in physiological saline, a solution obtained by dissolving 0.2% of a chlorogenic acid in physiological saline, a solution obtained by dissolving 0.2% of ferulic acid in physiological saline and a solution obtained by dissolving 0.1% of caffeic acid and 0.1% of ferulic acid in physiological saline were used in Test plot 1, Test plot 2, Test plot 3 and Test plot 4, respectively. In Test plot 5, a solution obtained by dissolving 0.1% of a chlorogenic acid and 0.1% of ferulic acid in physiological saline was used, while in Test plot 6, a solution obtained by dissolving 0.05% of caffeic acid, 0.05% of a chlorogenic acid and 0.1% of ferulic acid in physiological saline was used. Each of them was administered from the common carotid artery. The dosage was 1 mL/kg.
SHRs were fasted overnight and employed for each test group, each group consisted of 5 rats. Systolic blood pressures of the caudal artery prior to intravenous administration, and 10 minutes and 1 hour each after administration were measured.
In Table 1, the changing ratio (%) in systolic blood pressure for each experimental group is reported by its mean value (%) and by its standard deviation. The Student's t-test was used to indicate the statistical significance of the experimental data. A significance level of 5% or less is indicated as “*” in Table 1, and significance level of 0.1% or less as “***”.
A lowering ratio of the systolic blood pressure of each of 10 minutes and 1 hour after administration to the systolic blood pressure prior to administration is shown in Table 1.

In assay [2] the target is angiotensin I converting enzyme (ACE) (Homo sapiens, UniProt P12821). As to conditions: polyphenols of unripe Rosaceae fruit juice; JP Kokai Hei 8-259453; cited from earlier work.
A further assay deals with calcium. As to conditions: from spike of Schizonepeta tenuifolia Briq.; JP Kokai Hei 4-243822; cited from earlier work.

Marks after values point to notes of the source that are not given here.

angiotensin I converting enzyme (ACE), sequence (P12821 30-1306, species assumed): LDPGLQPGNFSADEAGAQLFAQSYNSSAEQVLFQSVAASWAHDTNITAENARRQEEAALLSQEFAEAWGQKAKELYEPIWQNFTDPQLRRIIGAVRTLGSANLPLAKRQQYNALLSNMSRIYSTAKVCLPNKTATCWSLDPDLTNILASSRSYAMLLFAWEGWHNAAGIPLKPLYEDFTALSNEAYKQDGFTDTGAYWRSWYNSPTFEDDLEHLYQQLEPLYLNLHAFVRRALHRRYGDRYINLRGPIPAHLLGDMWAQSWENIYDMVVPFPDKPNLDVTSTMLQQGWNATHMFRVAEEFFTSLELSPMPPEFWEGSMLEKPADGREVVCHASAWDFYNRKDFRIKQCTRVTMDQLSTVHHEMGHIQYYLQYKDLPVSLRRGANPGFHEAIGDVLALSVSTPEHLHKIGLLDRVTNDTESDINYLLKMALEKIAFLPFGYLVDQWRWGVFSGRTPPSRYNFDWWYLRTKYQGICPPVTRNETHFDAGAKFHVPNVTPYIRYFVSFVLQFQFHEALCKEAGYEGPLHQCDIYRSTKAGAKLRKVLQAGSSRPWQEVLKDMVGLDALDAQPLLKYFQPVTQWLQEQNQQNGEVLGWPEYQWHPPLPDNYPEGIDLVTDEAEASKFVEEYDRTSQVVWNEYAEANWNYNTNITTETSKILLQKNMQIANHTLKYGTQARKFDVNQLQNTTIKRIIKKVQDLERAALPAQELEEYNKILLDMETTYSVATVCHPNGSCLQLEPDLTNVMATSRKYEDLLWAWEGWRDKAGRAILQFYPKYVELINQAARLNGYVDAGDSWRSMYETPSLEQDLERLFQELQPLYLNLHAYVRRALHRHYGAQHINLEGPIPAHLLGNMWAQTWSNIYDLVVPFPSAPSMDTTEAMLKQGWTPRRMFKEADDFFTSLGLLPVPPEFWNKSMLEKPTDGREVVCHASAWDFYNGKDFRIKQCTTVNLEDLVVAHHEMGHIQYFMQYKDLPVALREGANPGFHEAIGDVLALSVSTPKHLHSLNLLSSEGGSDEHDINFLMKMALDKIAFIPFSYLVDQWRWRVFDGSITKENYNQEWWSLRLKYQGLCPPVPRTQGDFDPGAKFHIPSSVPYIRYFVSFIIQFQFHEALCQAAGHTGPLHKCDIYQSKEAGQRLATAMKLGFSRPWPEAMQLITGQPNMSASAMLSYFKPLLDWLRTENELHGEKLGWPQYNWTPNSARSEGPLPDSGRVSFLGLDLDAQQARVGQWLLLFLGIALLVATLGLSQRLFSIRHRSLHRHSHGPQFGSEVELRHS

With `COc1cc(/C=C/C(=O)O)ccc1O` [Ferulic acid (FA), ferulic acid], in assay [1], the “Systolic blood pressure (changing ratio %) after 10 minutes” value is −7.8 ± 0.8*** % and the “Systolic blood pressure (changing ratio %) After 1 hour” value stood at 0.7 ± 2.6%.
`O=C(/C=C/c1ccc(O)c(O)c1)O[C@@H]1C[C@](O)(C(=O)O)C[C@@H](O)[C@H]1O` [Chlorogenic acid (CHA), chlorogenic acid]: in assay [1], the “Systolic blood pressure (changing ratio %) after 10 minutes” value was −3.2 ± 2.6% and the “Systolic blood pressure (changing ratio %) After 1 hour” value is listed as −7.2 ± 1.7* %. Further, the “angiotensin I converting enzyme (ACE) inhibitory action (in words)” value in assay [2] is “inhibitory action”.
With `O=C(O)/C=C/c1ccc(O)c(O)c1` [Caffeic acid (CA), caffeic acid], in assay [1], the “Systolic blood pressure (changing ratio %) after 10 minutes” value is −4.1 ± 2.1% and the “Systolic blood pressure (changing ratio %) After 1 hour” value is −10.2 ± 0.5*** %. For the same compound, in assay [2], the “angiotensin I converting enzyme (ACE) inhibitory action (in words)” value is “inhibitory action”. The “calcium antagonism (in words)” value in the assay on calcium is reported as “exerts calcium antagonism”.
